{"source": "patent US7465541B1", "about": "“Vitamin D3-responsive sequences located 5′-upstream of p27/kip 1 gene and methods of screening for pharmaceutical agents using the sequences” (Toshiyuki Sakai, priority 2000, dated 2008)", "key": {"p27^Kip1 mRNA": {"system": "p27^Kip1 mRNA", "test": "p27^Kip1 mRNA induction in U937 cells (Northern analysis)", "format": "cell-based, human", "details": "peaked between 24 h and 48 h, compared with 0 h", "method": "Human cervical cancer cell line, C33A, human osteosarcoma cell lines, U2OS and MG63 were maintained in Dulbecco modified Eagle media containing 10% (v/v) fetal bovine serum (FBS) and cultivated in an atmosphere of 5% CO2 at 37° C. Human myelomonocytic cell line U937 (a generous gift from Dr. Y. Honma of the Saitama Cancer Research Institute, Saitama, Japan) was cultivated in Rosweli Park Memorial Institute (RPMI) 1640 media supplemented with 10% (v/v) fatal bovine serum in an atmosphere of 5% CO2.\nFor this purpose, a series of 5′ deletion constructs of the p27^Kip1 promoter were examined."}, "NF-YA mRNA": {"system": "NF-YA mRNA", "test": "RT-PCR of NF-YA mRNA in treated U937 cells", "format": "cell-based, human", "details": "10^−7 M, time course, primers F1/R and F2/R", "method": "RT-PCR of NF-YA mRNA was carried out as follows. […] RT-PCR was performed using the RNA PCR Kit Ver. 2.1 (Takara, Tokyo, Japan). The forward (F) and reverse (R) primers for NF-YA-short and -long were […] (Primer F1) (SEQ ID NO: 12), […] (primer F2) (SEQ ID NO: 13), and […] (primer R) (SEQ ID NO: 14). The forward and reverse primers for G3PDH were […] (SEQ ID NO: 15) and […] (SEQ ID NO: 16). One microgram of total RNA was used for RT-PCR. PCR was performed for 25 and 20 cycles to detect NF-YA subunits and G3PDH, respectively. PCR products were subjected to electrophoresis in a 3% agarose gel. The primers for NF-YA were designed to detect two different isoforms simultaneously and were located in regions that were conserved in the two isoforms (Li, X. Y. et al. (1992) J. Biol. Chem., 267, 8984-8990)."}, "[1]": {"system": "−555/−512 region of the human p27^Kip1 promoter fused to SV40 early promoter", "test": "Luciferase reporter assay with −555/−512 sequence upstream of SV40 early promoter in U937 cells", "format": "cell-based", "from_the_text": "Furthermore, the present inventors generated constructs containing four tandem copies of the specific sequence of the p27^Kip1 promoter fused to a minimal promoter. A double-stranded 52-bp DNA fragment containing a 44-bp sequence corresponding to the −555/−512 region of the human p27^Kip1 promoter and linker sites (indicated by lower case letters below) at both ends was generated from two oligonucleotides. The top strand (5′-aggg[…]-3′) (SEQ ID NO: 5) and the bottom strand (5′-ccct[…]-3′) (SEQ ID NO: 6) were annealed, ligated, blunted and subcloned into the SmaI site upstream of the SV40 early promoter in the PicaGene Promoter Vector 2 (Nippon Gene, Tokyo, Japan) in a forward or reverse orientation to generate PGPV2[−555/−512wild]4 and PGPV2[R−555/−512wiId]4, respectively. Similarly, three types of double-stranded mutated oligonucleotides of the 44-bp sequence were also inserted into the same vector to generate the mutated constructs, PGPV2[−555/−512mSp1-1]4, PGPV2[−555/−512 mSp1-2]4, PGPV2[−555/−512mCTf]4 (see Table 1). Oligonucleotides used in Example 3-6 are shown as follows (SEQ ID NOS: 5, 6, and 18-31).\nThe present inventors concluded that the region between −555 and −512 relative to the translation start site (−118 and −75 relative to the transcription start site) was sufficient for vitamin D3-induced transcription of the p27^Kip1 gene. Furthermore, both the Sp1-1 site and the CCAAT box in this region were vitamin D3-responsive elements and were required for vitamin D3-induced transcription of the p27^Kip1 gene."}, "NF-I": {"system": "NF-I", "test": "Gel shift assay, NF-I binding to NF-Iwild probe, nuclear extracts of treated U937 cells", "format": "cell-based, human", "details": "U937 cells treated 36 h, versus vehicle", "method": "Two μg of each nuclear extract was incubated with the −555/−512wild probe (lanes 1-3), −534/−512wild probe (lanes 4-6), or NF-Iwild probe (lanes 7-12) to detect Sp1, NF-Y, and NF-I, respectively.\nNuclear extracts of U937 cells were prepared according to the procedure of Andrew and Faller (Andrews, N. C. and Faller, D. V. (1991) Nucleic Acids Res., 19, 2499). […] Gel shift assays were carried out as described by Orita et al. (Orita, T. et al. (1997) J. Biol. Chem., 272, 23216-23223). The reaction mixture for the gel shift assay (25 μl final volume) contained 20 mM Tris-HCl (pH 8.0), 100 mM KCl, 10% glycerol, 1 μg of poly(dl-dC), and 2 μg of nuclear extract. After preincubation for 15 minutes at 23° C., probe DNA (approximately 0.5 ng, 10,000 cpm) was added to the mixture, and the binding reaction was allowed to proceed at 23° C. for 20 min. The resulting product was then resolved by electrophoresis on 4% acrylamide-bisacrylamide (29:1), 0.5×TBE nondenaturing gel at 10 V/cm for 150 min. Competition analyses were performed by mixing the indicated amount of appropriate competitor DNA to the binding reaction prior to addition of nuclear extracts. In supershift experiments, antibodies against Sp1 (sc-59X; Santa Cruz), Sp3 (sc-644X; Santa Cruz), and C/EBP-α (sc-7204X; Santa Cruz) were purchased. The antibodies against NF-YA, -YB, and -YC (IgG fraction) were kindly provided by Drs. […]"}}, "data": [{"smiles": "C=C1/C(=C\\C=C2/CCC[C@]3(C)[C@@H]([C@H](C)CCCC(C)(C)O)CC[C@@H]23)C[C@@H](O)C[C@@H]1O", "note": "[vitamin D3, 1,25-dihydroxyvitamin D3]", "values": [{"measurement": "p27^Kip1 mRNA induction", "setting": "p27^Kip1 mRNA", "result": "approximately 4 fold"}, {"measurement": "long form of NF-YA mRNA", "setting": "NF-YA mRNA", "result": "decreased gradually"}, {"measurement": "response to vitamin D3, one copy of the 44 bp fragment", "setting": "[1]", "result": "did not respond"}, {"measurement": "stimulatory effect, PGPV2[−555/−512mCTF]4", "setting": "[1]; 40 h, 10^−7 M", "result": "abolished any stimulatory effect"}, {"measurement": "stimulatory effect, PGPV2[−555/−512 mSp1-1]4", "setting": "[1]; 40 h, 10^−7 M", "result": "abolished any stimulatory effect"}, {"measurement": "response to vitamin D3, four copies of the 44 bp fragment (PGPV2[−555/−512wild]4)", "setting": "[1]; 40 h, 10^−7 M, orientation-dependent", "result": "conferred significant response"}, {"measurement": "luciferase activity, PGPV2[−555/−512 mSp1-2]4", "setting": "[1]; 40 h, 10^−7 M, similar to p27PF and PGPV2[−555/−512wild]4", "result": "activated"}, {"measurement": "DNA binding activity of NF-I", "setting": "NF-I", "result": "not changed"}]}]}
